According to US20230310573A1, “Stabilized Vaccine Compositions” (priority 2020, published 2023):

Key:
[1] = target: T1, RSV pre-fusion F (preF) protein of SEQ ID NO: 10 (Human respiratory syncytial virus A, UniProt P03420, D486N/DEL108-136/I379V/M447V/N67I/P102A/S215P); assay: Quantification of stabilizing compound III after UF/DF by LC-MS/MS; type: physicochemical; conditions: high excess (1:50) added before UF/DF
T1 construct: made in house
Method: FIG. 13. Buffer exchange using different buffers & and excess stabilizing compound III. Samples that contained stabilizing compound III, were pre-incubated for 24 h at room temperature (RT). […] Then, samples were assessed for (a) aggregation level by analytical SEC, (b) melting temperature by DSF (Day 0). Individual replicates (n=5 for slow freeze; n=3 for DSF), mean and error bars indicating the standard deviation are depicted. (c) Quantification of stabilizing compound III after UF/DF. Samples that were previously UF/DF-ed and snap frozen were used to quantify the amount of FI left after buffer exchange. Quantification was performed using a LC-MS/MS. Plotted in the left Y axis the concentration from each sample. Right Y axis corresponds to the equivalence of stabilizing compound III molecules per trimer.
Additionally, the concentration of stabilizing compound III present in the samples after UF/DF was determined by LC-MS/MS.

[2] = target: T1, RSV pre-fusion F (preF) protein of SEQ ID NO: 10; assay: UF/DF buffer exchange and slow freezing, aggregation by analytical SEC; type: physicochemical; conditions: for aggregation after buffer exchange and slow freezing: 1:50
Method: Buffer exchange of samples with and without stabilizing compound III was performed by ultrafiltration/diafiltration (UF/DF), using a Cogent μScale TFF system (Merck). […] Stabilizing compound III was preincubated with the sample and in one case also added to the buffer used for the UF/DF (see FIG. 12 labeled 1:3 & In Buffer). Runs were performed using Pelicon XL Biomax 50 cm2 filter cassettes. For each run, the system was flushed with MilliQ water at a crossflow of 30-50 mL/min, then the system was cleaned with NaOH 0.1M (recirculated for at least 5 min.) After this, the system was flushed again with MilliQ water until a pH of 7 was reached, followed by a 5 min. flush of the system with the desired buffer. Subsequently, the protein (50 mL) was added to the system for diafiltration against 7 diavolumes (350 mL) of the desired buffer.
Each formulation (pre and post UF/DF samples) was diluted to 0.3 mg/ml. 0.75 ml of each formulation was filled in glass injection vials with rubber stopper and sealed with aluminum caps. Vials were frozen to −70° C. in 24 hours under controlled conditions. Samples were subsequently thawed to RT and analyzed by analytical Size Exclusion Chromatography (SEC) to measure loss of RSV F trimer compared the sample that was kept at 4° C. In addition, the different formulations with and without stabilizing compound III were evaluated in DSF to measure the melting temperature. For experimental details see example 2.
Stabilizing compound III was added in a 1:50 trimer:compound ratio before the UD/DF and incubated for 24 hours at […] The excess of unbound stabilizing compound III is removed during the UF/DF process.
Each formulation (pre and post dialysis samples) was diluted to 0.3 mg/ml. 0.75 ml of each formulation was filled in glass injection vials with rubber stopper and sealed with aluminum caps. Vials were slowly frozen to −70° C. in 24 hours. Samples were subsequently thawed to RT and analyzed by analytical Size Exclusion Chromatography (SEC) to measure loss of RSV F trimer compared the sample that was kept at 4° C. In addition, the different formulations with and without compound III were evaluated in DSF to measure the melting temperature. For experimental details see example 2.

Structure (SMILES): CS(=O)(=O)CCCn1c(Cn2c(=O)n(C3CC3)c3ccncc32)nc2cc(Br)ccc21 [Compound III, 3-[[5-bromo-1-(3-methylsulfonylpropyl)benzimidazol-2-yl]methyl]-1-cyclopropyl-imidazo[4,5-c]pyridin-2-one]
- compound bound after UF/DF (LC-MS/MS) [1]: ~2.6 molecules of stabilizing compound III per trimer
- aggregation after buffer exchange and subsequent slow freezing ([2]; 1:50 trimer:compound before UF/DF, irrespective of the buffer): protected from aggregation
- aggregation after buffer exchange and slow freezing ([2]; AP1 buffer): did not provide enough protections against aggregation
- aggregation after buffer exchange and slow freezing ([2]; Formulation 1 without PS20): provided protection against aggregation
- aggregation after UF/DF and slow freezing ([2]; Formulation buffer 6, irrespective of compound concentration): protected from aggregation
